target: SOS1 and KRAS G12D (protein-protein interaction) (Homo sapiens, UniProt Q07889); assay: KRAS::SOS1 AlphaScreen binding assay; settings: assay buffer without EDTA (values not marked with an asterisk); read-out: IC50 (SOS1)
Description: KRAS::SOS1 AlphaScreen Binding Assay
Low IC50 values are indicative of high potency of the SOS1 inhibitor compound in this assay setting:
10 nM (final assay concentration) KRAS G12D, 10 μM (final assay concentration) GDP and 5 nM (final assay concentration) GST-SOS1 are mixed in assay buffer prior to use and kept at room temperature.
AlphaLSA Glutathione Acceptor Beads and AlphaScreen Streptavidin Donor Beads are mixed in assay buffer at a concentration of 10 μg/mL (final assay concentration) each prior to use and kept at room temperature.
Compounds are diluted to a final start concentration of 100 μM and are tested in duplicate. […] For compound a start concentration of 100 μM, 150 nL of compound solution is transferred per well in 11 concentrations in duplicate with serial 1:5 dilutions.
The assay is run using a fully automated robotic system in a darkened room below 100 Lux. 10 μL of KRAS::SOS1 GDP mix is added into columns 1-24 to the 150 nL of compound solution (final dilution in the assay 1:100, final DMSO concentration 1%).
After a 30 minute incubation time 5 μL of bead mix is added into columns 1-23. Plates are kept at room temperature in a darkened incubator. After a further 60 minute incubation, the signal is measured using a PerkinElmer Envision HTS Multilabel Reader using the AlphaScreen specifications from PerkinElmer. Each plate contains the following controls: • diluted DMSO+KRAS::SOS1 GDP mix+bead mix • diluted DMSO+KRAS::SOS1 GDP mix Result Calculation:
IC50 values are calculated and analyzed using a 4 parametric logistic model.

Structure (SMILES) | IC50
Cc1cccc([C@@H](C)Nc2nc(C)nc3cc(C)c(C4CCN(C(C)C)CC4)cc23)c1 [I-288] | 22 nM
Cc1cccc([C@@H](C)Nc2nc(C)nc3c(C)cc(C4CCN(C(C)C)CC4)cc23)c1 [I-289] | 18 nM
Cc1cccc([C@@H](C)Nc2nc(C)nc3c(C)cc(C4CCN(C5CCOC5)CC4)cc23)c1 (stereo partly shown) [I-290] | 28 nM
Cc1cccc([C@@H](C)Nc2nc(C)nc3cc(C)c(C4CCN(CC(=O)O)CC4)cc23)c1 [I-291] | 10 nM
Cc1cccc([C@@H](C)Nc2nc(C)nc3c(C)cc(C4CCN(CC(=O)O)CC4)cc23)c1 [I-292] | 28 nM
Cc1nc(N[C@H](C)c2cccc(C(F)(F)F)c2)c2cc(C3CCN(CC(=O)O)CC3)ccc2n1 [I-293] | 11 nM

same assay, conditions: read-out: IC50 (SOS1)

Structure (SMILES) | IC50
COCC(=O)N1CCC(c2cc3c(N[C@H](C)c4cccc(C)c4)nc(C)nc3cc2OC)CC1 [I-282] | 20 nM
COc1cc2nc(C)nc(N[C@H](C)c3cccc(C(F)(F)CO)c3)c2cc1C1=CCC(C(=O)N(C)C)CC1 (stereo partly shown) [I-285] | 2 nM
COCC(=O)N1CC=C(c2cc3c(N[C@H](C)c4cccc(C(F)(F)CO)c4)nc(C)nc3cc2OC)CC1 [I-286] | 2 nM
COc1cc2nc(C)nc(N[C@H](C)c3cccc(C(F)(F)CO)c3)c2cc1C1=CCN(C(C)=O)CC1 [I-287] | 2 nM
COc1cc2nc(C)nc(N[C@H](C)c3cccc(C(F)(F)F)c3C)c2cc1[C@H]1CC[C@H](C(=O)N(C)CCO)CC1 [I-294] | 5 nM
COc1cc2nc(C)nc(N[C@H](C)c3cccc(C(F)(F)F)c3C)c2cc1[C@H]1CC[C@H](C(=O)N(C)C)CC1 [I-296] | 7 nM
Cc1nc(N[C@H](C)c2cc(N)cc(C(F)(F)F)c2)c2cc([C@H]3CC[C@H](C(=O)N(C)C)CC3)ccc2n1 [I-298] | 3 nM
Cc1nc(N[C@H](C)c2cc(N)cc(C(F)(F)F)c2)c2cc([C@H]3CC[C@@H](C(=O)N(C)C)CC3)ccc2n1 [I-299] | 10 nM
COCC(=O)N1CCC(c2cc3c(N[C@H](C)c4cc(N)cc(C(F)(F)F)c4F)nc(C)nc3cc2OC)CC1 [I-307] | 3 nM
COc1cc2nc(C)nc(N[C@H](C)c3cccc(C(F)(F)F)c3)c2cc1C1CCN(C(C)=O)CC1 [I-308] | 9 nM
Cc1nc(N[C@H](C)c2cc(N)cc(C(F)(F)F)c2F)c2cc(C3CCS(=O)(=O)CC3)ccc2n1 [I-310] | 7 nM
COc1cc2nc(C)nc(N[C@H](C)c3cc(N)cc(C(F)(F)F)c3F)c2cc1C1CCS(=O)(=O)CC1 [I-311] | 6 nM
COc1cc2nc(C)nc(N[C@H](C)c3cccc(C)c3)c2cc1C1CCS(=O)(=O)CC1 [I-312] | 18 nM
Cc1nc(N[C@H](C)c2cc(N)cc(C(F)(F)F)c2)c2cc(C3CCN(C(=O)CN(C)C)CC3)ccc2n1 [I-313] | 3 nM
COCC(=O)N1CCC(c2ccc3nc(C)nc(N[C@H](C)c4cc(N)cc(C(F)(F)F)c4)c3c2)CC1 [I-314] | 2 nM
COCC(=O)N1CCC(c2cc3c(N[C@H](C)c4cc(N)cc(C(F)(F)F)c4)nc(C)nc3cc2C)CC1 [I-315] | 3 nM
Cc1nc(N[C@H](C)c2cc(N)cc(C(F)(F)F)c2)c2cc(C3CCS(=O)(=O)CC3)cc(C)c2n1 [I-316] | 6 nM
Cc1nc(N[C@H](C)c2cc(N)cc(C(F)(F)F)c2C)c2cc(C3CCS(=O)(=O)CC3)ccc2n1 [I-317] | 4 nM
Cc1nc(N[C@H](C)c2cc(N)cc(C(F)(F)F)c2)c2cc(C3CCS(=O)(=O)CC3)c(F)cc2n1 [I-320] | 4 nM
Cc1nc(N[C@H](C)c2cc(N)cc(C(F)(F)F)c2)c2cc(C3CCS(=O)(=O)CC3)c(C)cc2n1 [I-321] | 3 nM
Cc1nc(N[C@H](C)c2cc(N)cc(C(F)(F)F)c2)c2cc(C3CCS(=O)(=O)CC3)ccc2n1 [I-322] | 3 nM
CCn1cc(-c2cc3c(N[C@H](C)c4cc(N)cc(C(F)(F)F)c4)nc(C)nc3cc2C)ccc1=O [I-347] | 6 nM
Cc1nc(N[C@H](C)c2cc(N)cc(C(F)(F)F)c2)c2cc(-c3ccn(C)c(=O)c3)c(C)cc2n1 [I-348] | 7 nM

Structure (SMILES) | IC50
CCn1ccc(-c2cc3c(N[C@H](C)c4cc(N)cc(C(F)(F)F)c4)nc(C)nc3cc2C)cc1=O [I-349] | 5 nM
CCn1cc(-c2cc3c(N[C@H](C)c4cc(N)cc(C(F)(F)F)c4)nc(C)nc3cc2OC)ccc1=O [I-350] | 9 nM
COc1cc2nc(C)nc(N[C@H](C)c3cc(N)cc(C(F)(F)F)c3)c2cc1-c1ccc(=O)n(C(C)C)c1 [I-351] | 13 nM
Cc1nc(N[C@H](C)c2cc(N)cc(C(F)(F)F)c2)c2cc([C@H]3CC[C@H](C(=O)N(C)C)CC3)c(C)cc2n1 [I-352] | 2 nM
COc1cc2nc(C)nc(N[C@H](C)c3cc(N)cc(C(F)(F)F)c3)c2cc1[C@H]1CC[C@H](C(=O)N2CCN(C)CC2)CC1 [I-353] | 2 nM
COc1cc2nc(C)nc(N[C@H](C)c3cc(N)cc(C(F)(F)F)c3)c2cc1[C@H]1CC[C@@H](C(=O)N2CCN(C)CC2)CC1 [I-354] | 22 nM
COc1cc2nc(C)nc(N[C@H](C)c3cc(N)cc(C(F)(F)F)c3)c2cc1[C@H]1CC[C@H](C(=O)N(C)C)CC1 [I-355] | 2 nM
COc1cc2nc(C)nc(N[C@H](C)c3cc(N)cc(C(F)(F)F)c3)c2cc1[C@H]1CC[C@@H](C(=O)N(C)C)CC1 [I-356] | 34 nM
COCCN(C)C(=O)[C@H]1CC[C@H](c2cc3c(N[C@H](C)c4cc(N)cc(C(F)(F)F)c4)nc(C)nc3cc2OC)CC1 [I-357] | 3 nM
COCCN(C)C(=O)[C@H]1CC[C@@H](c2cc3c(N[C@H](C)c4cc(N)cc(C(F)(F)F)c4)nc(C)nc3cc2OC)CC1 [I-358] | 49 nM
COc1cc2nc(C)nc(N[C@H](C)c3cc(N)cc(C(F)(F)F)c3)c2cc1[C@H]1CC[C@H](C(=O)N2CCOCC2)CC1 [I-359] | 2 nM
COc1cc2nc(C)nc(N[C@H](C)c3cc(N)cc(C(F)(F)F)c3)c2cc1[C@H]1CC[C@@H](C(=O)N2CCOCC2)CC1 [I-360] | 25 nM
Cc1nc(N[C@H](C)c2cc(N)cc(C(F)(F)F)c2)c2cc([C@H]3CC[C@H](C(=O)N4CCN(C)CC4)CC3)cc(C)c2n1 [I-361] | 5 nM
Cc1nc(N[C@H](C)c2cc(N)cc(C(F)(F)F)c2)c2cc([C@H]3CC[C@@H](C(=O)N4CCN(C)CC4)CC3)cc(C)c2n1 [I-362] | 8 nM
Cc1nc(N[C@H](C)c2cc(N)cc(C(F)(F)F)c2)c2cc([C@H]3CC[C@H](C(=O)N(C)C)CC3)cc(C)c2n1 [I-363] | 4 nM
Cc1nc(N[C@H](C)c2cc(N)cc(C(F)(F)F)c2)c2cc(C3=CCS(=O)(=O)CC3)cc(C)c2n1 [I-364] | 11 nM
CNC(=O)CC(C)c1ccc2nc(C)nc(N[C@H](C)c3cccc(C(F)(F)F)c3)c2c1 (stereo partly shown) [I-375] | 36 nM
CONC(=O)CC(C)c1ccc2nc(C)nc(N[C@H](C)c3cccc(C(F)(F)F)c3)c2c1 (stereo partly shown) [I-376] | 34 nM
CNC(=O)CC(C)c1cc2c(N[C@H](C)c3cccc(C(F)(F)F)c3)nc(C)nc2cc1C (stereo partly shown) [I-377] | 10 nM
CONC(=O)CC(C)c1cc2c(N[C@H](C)c3cccc(C(F)(F)F)c3)nc(C)nc2cc1C (stereo partly shown) [I-378] | 8 nM
Cc1nc(N[C@H](C)c2cccc(C(F)(F)F)c2)c2cc(C(C)CC(=O)NC3CC3)c(C)cc2n1 (stereo partly shown) [I-379] | 12 nM
Cc1nc(N[C@H](C)c2cccc(C(F)(F)F)c2)c2cc(C(C)CC(=O)NCC(F)(F)F)c(C)cc2n1 (stereo partly shown) [I-380] | 42 nM

same assay, conditions: values marked with * in the table; read-out: IC50 (SOS1)

Structure (SMILES) | IC50
Cc1cccc([C@@H](C)Nc2nc(C)nc3ccc(C4CCS(=N)(=O)CC4)cc23)c1 (stereo partly shown) [I-330] | 20 nM
Cc1cccc([C@@H](C)Nc2nc(C)nc3ccc([C@H]4CC[S@@](=N)(=O)CC4)cc23)c1 [I-331] | 25 nM
Cc1cccc([C@@H](C)Nc2nc(C)nc3ccc([C@H]4CC[S@](=N)(=O)CC4)cc23)c1 [I-332] | 18 nM
Cc1nc(N[C@H](C)c2cccc(C(F)(F)F)c2)c2cc(-c3ccc(=O)n(CC(=O)N(C)C)c3)ccc2n1 [I-333] | 26 nM
COc1cc2nc(C)nc(N[C@H](C)c3cccc(C)c3)c2cc1-c1ccc(=O)n(CC(=O)N(C)C)c1 [I-335] | 27 nM
Cc1cccc([C@@H](C)Nc2nc(C)nc3ccc(-c4ccc(=O)n(CC(=O)N(C)C)c4)cc23)c1 [I-336] | 26 nM
Cc1nc(N[C@H](C)c2cccc(C(F)(F)F)c2)c2cc(-c3ccn(CC(=O)N(C)C)c(=O)c3)ccc2n1 [I-337] | 37 nM
COc1cc2nc(C)nc(N[C@H](C)c3cccc(C)c3)c2cc1-c1ccn(CC(=O)N(C)C)c(=O)c1 [I-338] | 39 nM
Cc1cccc([C@@H](C)Nc2nc(C)nc3ccc(-c4ccn(CC(=O)N(C)C)c(=O)c4)cc23)c1 [I-340] | 1 nM
Cc1nc(N[C@H](C)c2cccc(C(F)(F)F)c2)c2cc(-c3ccc(=O)n(CC(=O)O)c3)ccc2n1 [I-341] | 35 nM
Cc1cccc([C@@H](C)Nc2nc(C)nc3ccc(-c4ccn(CC(=O)O)c(=O)c4)cc23)c1 [I-342] | 48 nM
Cc1nc(N[C@H](C)c2cccc(C(F)(F)F)c2)c2cc(-c3ccc(=O)n(CC(N)=O)c3)ccc2n1 [I-343] | 40 nM
CNC(=O)Cn1cc(-c2ccc3nc(C)nc(N[C@H](C)c4cccc(C(F)(F)F)c4)c3c2)ccc1=O [I-344] | 37 nM

— US12053473B2, “Benzylamino substituted quinazolines and derivatives as SOS1 inhibitors” (priority 2016, dated 2024)
